From the NIST ThermoML archive (doi:10.1016/j.tca.2008.10.017)
± gives the expanded uncertainty stated by the source.

Tests used:
[1] = Molar enthalpy of transition or fusion; settings: DSC
[2] = for molar entropy: 101.33 kPa, Small (less than 1 g) adiabatic calorimetry; for Triple point temperature: DTA

CCCC[N+](CCCC)(CCCC)CCCC.[I-] [tetrabutylammonium iodide]
Settings | Molar enthalpy of transition or fusion, [1] [kcal/mol] | Triple point temperature, [2] [K]
Crystal 1 | 2.15 ± 0.0717 | 423.2 ± 0.8
Crystal 2 | 6.64 ± 0.143 | 398.7 ± 1

[2], Crystal 2
Settings | molar entropy [J/K/mol]
5 K | 0.292 ± 0.03
10 K | 2.32 ± 0.07
20 K | 14.45 ± 0.23
30 K | 33.35 ± 0.31
40 K | 55.15 ± 0.44
50 K | 77.88 ± 0.57
60 K | 100.5 ± 0.7
70 K | 123 ± 0.8
80 K | 145 ± 1
90 K | 166.3 ± 1
100 K | 187 ± 1.2
110 K | 207.1 ± 1.3
120 K | 226.7 ± 1.4
130 K | 245.6 ± 1.5
140 K | 264 ± 1.6
150 K | 282 ± 1.6
160 K | 299.4 ± 1.7
170 K | 316.5 ± 1.8
180 K | 333.2 ± 1.9
190 K | 349.6 ± 2
200 K | 365.7 ± 2.1
210 K | 381.6 ± 2.2
220 K | 397.2 ± 2.2
230 K | 412.6 ± 2.3
240 K | 427.9 ± 2.4
250 K | 443.1 ± 2.5
260 K | 458.1 ± 2.6
270 K | 473.1 ± 2.6
273.15 K | 477.8 ± 2.7
280 K | 488 ± 2.7
290 K | 502.9 ± 2.8
298.15 K | 515 ± 2.9
300 K | 517.7 ± 2.9
310 K | 532.6 ± 2.9
320 K | 547.4 ± 3
330 K | 562.3 ± 3.1
340 K | 577.3 ± 3.2
350 K | 592.4 ± 3.3
